According to patent US20020137929A1, “1 - (3-heterocyclylphenyl) isothiourea, -isourea, -guanidine and -amidine herbicidal agents” (Intellectual Property Department, BASF Aktiengesellschaft, priority 1998, published 2002):

What was measured:
AMBEL (Ragweed, Common) [1] = assay: Postemergence herbicidal evaluation; assay type: in vivo, Ambrosia artemisifolia; details: postemergence
Outline: (§1)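 Rate range approx. 0.0156–0.500 kg/ha. Foliar application at 40 psi to ~2-week seedlings; surfactant 0.5% TWEEN 20 in 50/50 acetone/water. Evaluation 4–5 wk post-treatment by 0–9 visual injury score, means of replicate tests.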

CASOB (Sicklepod) [2] = assay: Postemergence herbicidal evaluation; assay type: in vivo, Cassia obtusifolia; details: postemergence
Outline: as §1

[3] = tested on: CHEAL (Lambsquarters, Common); assay: Postemergence herbicidal evaluation; assay type: in vivo, Chenopodium album; details: postemergence
Outline: as §1

[4] = tested on: IPOHE (Morningglory, Ivyleaf); assay: Postemergence herbicidal evaluation; assay type: in vivo, Ipomoea hederacea; details: postemergence
Outline: as §1

ECHCG (Barnyardgrass) = assay: Postemergence herbicidal evaluation; assay type: in vivo, Echinochloa crus-galli; details: postemergence
Outline: as §1

[5] = tested on: GLXMAW (Soybean, Williams); assay: Postemergence herbicidal evaluation; assay type: in vivo, Glycine max, (L.) Merr. cv Williams; details: postemergence
Outline: as §1

[6] = tested on: TRZAWR (Wheat, Winter, cv Riband); assay: Postemergence herbicidal evaluation; assay type: in vivo, Triticum aestivum; details: postemergence
Outline: as §1

ABUTH (Velvetleaf) = assay: Preemergence herbicidal evaluation; assay type: in vivo, Abutilon theophrasti; details: preemergence, rated 4-5 weeks after treatment, 0-9 scale
Outline: (§2)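 Rating at 4–5 wk post-spray on a 0–9 visual scale vs control. Application: aqueous acetone, ~0.0156–0.500 kg/ha, to soil surface after seeding, preemergence.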

AMBEL (Ragweed, Common) [7] = assay: Preemergence herbicidal evaluation; assay type: in vivo, Ambrosia artemisifolia; details: preemergence, rated 4-5 weeks after treatment, 0-9 scale
Outline: as §2

CASOB (Sicklepod) [8] = assay: Preemergence herbicidal evaluation; assay type: in vivo, Cassia obtusifolia; details: preemergence, rated 4-5 weeks after treatment, 0-9 scale
Outline: as §2

[9] = tested on: CHEAL (Lambsquarters, Common); assay: Preemergence herbicidal evaluation; assay type: in vivo, Chenopodium album; details: preemergence, rated 4-5 weeks after treatment, 0-9 scale
Outline: as §2

[10] = tested on: IPOHE (Morningglory, Ivyleaf); assay: Preemergence herbicidal evaluation; assay type: in vivo, Ipomoea hederacea; details: preemergence, rated 4-5 weeks after treatment, 0-9 scale
Outline: as §2

[11] = tested on: GLXMAW (Soybean, Williams); assay: Preemergence herbicidal evaluation; assay type: in vivo, Glycine max, (L.) Merr. cv Williams; details: preemergence, rated 4-5 weeks after treatment, 0-9 scale
Outline: as §2

ORYSAT (Rice, Tebonnet) = assay: Preemergence herbicidal evaluation; assay type: in vivo, Oryza sativa, (L.) Tebonnet; details: preemergence, rated 4-5 weeks after treatment, 0-9 scale
Outline: as §2

[12] = tested on: SAGPY (Arrowhead (Pygmaea)); assay: Preemergence weed control under flooded paddy conditions; assay type: in vivo, Sagittaria pygmaea; details: rated 3-4 weeks after treatment
Outline: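 Silt loam, seeds in top 0.5 cm; flood held 1.5-3 cm; test cpd as acetone/water 50/50 into flood water, ~0.0313-0.500 kg/ha a.i.; greenhouse 3-4 wk; visual 0-9 score vs control.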

Structure (SMILES): COC(=O)C1(N2C(=O)CSC2=Nc2cc(-n3c(=O)cc(C(F)(F)F)n(C)c3=O)c(F)cc2Cl)CCCCC1 [Compound 81, Methyl 1-{2-{{2-chloro-5-[3,6-dihydro-3-methyl-2,6-dioxo-4-(trifluoromethyl)-1(2H)-pyrimidinyl]-4-fluorophenyl}imino}-4-oxo-3-thiazolidinyl}-cyclohexanecarboxylate]
- AMBEL herbicidal rating (AMBEL (Ragweed, Common) [1]; rate 0.0158 kg/ha): 9.0
- AMBEL herbicidal rating (AMBEL (Ragweed, Common) [1]; rate 0.0315 kg/ha): 9.0
- AMBEL herbicidal rating (AMBEL (Ragweed, Common) [1]; rate 0.0630 kg/ha): 9.0
- CASOB herbicidal rating (CASOB (Sicklepod) [2]; rate 0.0158 kg/ha): 1.0
- CASOB herbicidal rating (CASOB (Sicklepod) [2]; rate 0.0315 kg/ha): 2.0
- CASOB herbicidal rating (CASOB (Sicklepod) [2]; rate 0.0630 kg/ha): 5.0
- CHEAL herbicidal rating ([3]; rate 0.0158 kg/ha): 4.0
- CHEAL herbicidal rating ([3]; rate 0.0315 kg/ha): 3.0
- IPOHE herbicidal rating ([4]; rate 0.0158 kg/ha): 9.0
- IPOHE herbicidal rating ([4]; rate 0.0315 kg/ha): 9.0
- IPOHE herbicidal rating ([4]; rate 0.0630 kg/ha): 9.0
- ECHCG herbicidal rating (ECHCG (Barnyardgrass); rate 0.0158 kg/ha): 1.0
- ECHCG herbicidal rating (ECHCG (Barnyardgrass); rate 0.0315 kg/ha): 2.0
- ECHCG herbicidal rating (ECHCG (Barnyardgrass); rate 0.0630 kg/ha): 6.0
- GLXMAW herbicidal rating ([5]; rate 0.0158 kg/ha): 6.5
- GLXMAW herbicidal rating ([5]; rate 0.0315 kg/ha): 6.5
- GLXMAW herbicidal rating ([5]; rate 0.0630 kg/ha): 6.5
- TRZAWR herbicidal rating ([6]; rate 0.0158 kg/ha): 4.5
- TRZAWR herbicidal rating ([6]; rate 0.0315 kg/ha): 5.0
- TRZAWR herbicidal rating ([6]; rate 0.0630 kg/ha): 6.0
- ABUTH rating (ABUTH (Velvetleaf); 0.0313 kg/ha): 9.0
- ABUTH rating (ABUTH (Velvetleaf); 0.0625 kg/ha): 9.0
- ABUTH rating (ABUTH (Velvetleaf); 0.1250 kg/ha): 9.0
- ABUTH rating (ABUTH (Velvetleaf); 0.2500 kg/ha): 9.0
- AMBEL rating (AMBEL (Ragweed, Common) [7]; 0.0313 kg/ha): 6.0
- AMBEL rating (AMBEL (Ragweed, Common) [7]; 0.0625 kg/ha): 6.0
- AMBEL rating (AMBEL (Ragweed, Common) [7]; 0.1250 kg/ha): 9.0
- AMBEL rating (AMBEL (Ragweed, Common) [7]; 0.2500 kg/ha): 9.0
- CASOB rating (CASOB (Sicklepod) [8]; 0.0313 kg/ha): 0.0
- CASOB rating (CASOB (Sicklepod) [8]; 0.1250 kg/ha): 0.0
- CASOB rating (CASOB (Sicklepod) [8]; 0.2500 kg/ha): 0.0
- CHEAL rating ([9]; 0.0313 kg/ha): 7.0
- CHEAL rating ([9]; 0.0625 kg/ha): 9.0
- CHEAL rating ([9]; 0.1250 kg/ha): 9.0
- CHEAL rating ([9]; 0.2500 kg/ha): 9.0
- IPOHE rating ([10]; 0.0313 kg/ha): 0.0
- IPOHE rating ([10]; 0.1250 kg/ha): 1.0
- IPOHE rating ([10]; 0.2500 kg/ha): 9.0
- GLXMAW rating ([11]; 0.0313 kg/ha): 0.0
- GLXMAW rating ([11]; 0.0625 kg/ha): 2.0
- GLXMAW rating ([11]; 0.1250 kg/ha): 1.0
- GLXMAW rating ([11]; 0.2500 kg/ha): 3.0
- ORYSAT rating (ORYSAT (Rice, Tebonnet); 0.0313 kg/ha): 0.0
- ORYSAT rating (ORYSAT (Rice, Tebonnet); 0.0625 kg/ha): 0.0
- ORYSAT rating (ORYSAT (Rice, Tebonnet); 0.1250 kg/ha): 1.0
- ORYSAT rating (ORYSAT (Rice, Tebonnet); 0.2500 kg/ha): 1.0
- SAGPY herbicidal effect rating ([12]; 0.0625 kg/ha): 0.0
- SAGPY herbicidal effect rating ([12]; 0.1250 kg/ha): 0.0
- SAGPY herbicidal effect rating ([12]; 0.2500 kg/ha): 0.0

Structure (SMILES): CCOC(=O)CN1C(=O)C(CC(=O)OCCF)SC1=Nc1cc(-n2c(=O)cc(C(F)(F)F)n(C)c2=O)c(F)cc1Cl (stereo not shown) [Compound 82, 2-{{2-Chloro-5-[3,6-dihydro-3-methyl-2,6-dioxo-4-(trifluoromethyl)-1(2H)-pyrimidinyl]-4-fluoro-phenyl}imino}-4-oxo-3,5-thiazolidinediacetic acid, 3-ethyl 2-fluoroethyl ester]
- AMBEL herbicidal rating (AMBEL (Ragweed, Common) [1]; rate 0.0158 kg/ha): 9.0
- AMBEL herbicidal rating (AMBEL (Ragweed, Common) [1]; rate 0.0315 kg/ha): 9.0
- AMBEL herbicidal rating (AMBEL (Ragweed, Common) [1]; rate 0.0630 kg/ha): 9.0
- CASOB herbicidal rating (CASOB (Sicklepod) [2]; rate 0.0158 kg/ha): 9.0
- CASOB herbicidal rating (CASOB (Sicklepod) [2]; rate 0.0315 kg/ha): 9.0
- CASOB herbicidal rating (CASOB (Sicklepod) [2]; rate 0.0630 kg/ha): 9.0
- CHEAL herbicidal rating ([3]; rate 0.0158 kg/ha): 7.0
- CHEAL herbicidal rating ([3]; rate 0.0315 kg/ha): 9.0
- CHEAL herbicidal rating ([3]; rate 0.0630 kg/ha): 9.0
- IPOHE herbicidal rating ([4]; rate 0.0158 kg/ha): 9.0
- IPOHE herbicidal rating ([4]; rate 0.0315 kg/ha): 9.0
- IPOHE herbicidal rating ([4]; rate 0.0630 kg/ha): 9.0
- ECHCG herbicidal rating (ECHCG (Barnyardgrass); rate 0.0158 kg/ha): 9.0
- ECHCG herbicidal rating (ECHCG (Barnyardgrass); rate 0.0315 kg/ha): 9.0
- ECHCG herbicidal rating (ECHCG (Barnyardgrass); rate 0.0630 kg/ha): 9.0
- GLXMAW herbicidal rating ([5]; rate 0.0158 kg/ha): 8.5
- GLXMAW herbicidal rating ([5]; rate 0.0315 kg/ha): 9.0
- GLXMAW herbicidal rating ([5]; rate 0.0630 kg/ha): 9.0
- TRZAWR herbicidal rating ([6]; rate 0.0158 kg/ha): 7.5
- TRZAWR herbicidal rating ([6]; rate 0.0315 kg/ha): 7.5
- TRZAWR herbicidal rating ([6]; rate 0.0630 kg/ha): 8.5
- ABUTH rating (ABUTH (Velvetleaf); 0.0156 kg/ha): 3.0
- ABUTH rating (ABUTH (Velvetleaf); 0.0313 kg/ha): 9.0
- ABUTH rating (ABUTH (Velvetleaf); 0.0625 kg/ha): 9.0
- ABUTH rating (ABUTH (Velvetleaf); 0.1250 kg/ha): 9.0
- ABUTH rating (ABUTH (Velvetleaf); 0.2500 kg/ha): 9.0
- AMBEL rating (AMBEL (Ragweed, Common) [7]; 0.0156 kg/ha): 0.0
- AMBEL rating (AMBEL (Ragweed, Common) [7]; 0.0313 kg/ha): 2.0
- AMBEL rating (AMBEL (Ragweed, Common) [7]; 0.0625 kg/ha): 3.0
- AMBEL rating (AMBEL (Ragweed, Common) [7]; 0.1250 kg/ha): 9.0
- AMBEL rating (AMBEL (Ragweed, Common) [7]; 0.2500 kg/ha): 9.0
- CASOB rating (CASOB (Sicklepod) [8]; 0.0156 kg/ha): 0.0
- CASOB rating (CASOB (Sicklepod) [8]; 0.0313 kg/ha): 0.0
- CASOB rating (CASOB (Sicklepod) [8]; 0.0625 kg/ha): 3.0
- CASOB rating (CASOB (Sicklepod) [8]; 0.1250 kg/ha): 9.0
- CASOB rating (CASOB (Sicklepod) [8]; 0.2500 kg/ha): 9.0
- CHEAL rating ([9]; 0.0156 kg/ha): 9.0
- CHEAL rating ([9]; 0.0313 kg/ha): 9.0
- CHEAL rating ([9]; 0.0625 kg/ha): 9.0
- CHEAL rating ([9]; 0.1250 kg/ha): 9.0
- CHEAL rating ([9]; 0.2500 kg/ha): 9.0
- IPOHE rating ([10]; 0.0156 kg/ha): 0.0
- IPOHE rating ([10]; 0.0313 kg/ha): 0.0
- IPOHE rating ([10]; 0.0625 kg/ha): 4.0
- IPOHE rating ([10]; 0.1250 kg/ha): 9.0
- IPOHE rating ([10]; 0.2500 kg/ha): 9.0
- GLXMAW rating ([11]; 0.0156 kg/ha): 0.0
- GLXMAW rating ([11]; 0.0313 kg/ha): 0.0
- GLXMAW rating ([11]; 0.0625 kg/ha): 0.0
- GLXMAW rating ([11]; 0.1250 kg/ha): 0.0
- GLXMAW rating ([11]; 0.2500 kg/ha): 5.0
- ORYSAT rating (ORYSAT (Rice, Tebonnet); 0.0156 kg/ha): 0.0
- ORYSAT rating (ORYSAT (Rice, Tebonnet); 0.0313 kg/ha): 0.0
- ORYSAT rating (ORYSAT (Rice, Tebonnet); 0.0625 kg/ha): 0.0
- ORYSAT rating (ORYSAT (Rice, Tebonnet); 0.1250 kg/ha): 0.0
- ORYSAT rating (ORYSAT (Rice, Tebonnet); 0.2500 kg/ha): 0.0
- SAGPY herbicidal effect rating ([12]; 0.0313 kg/ha): 4.0
- SAGPY herbicidal effect rating ([12]; 0.0625 kg/ha): 4.0
- SAGPY herbicidal effect rating ([12]; 0.1250 kg/ha): 4.0
- SAGPY herbicidal effect rating ([12]; 0.2500 kg/ha): 7.0
